Reference: patent US20210128645A1, “INTESTINAL MICROBE HAVING D-PSICOSE-RESPONSIVE PROLIFERATION” (priority 2018, published 2021)

Legend:
[1] = tested on: male C57BL/6J mice fed a high-fat diet; experiment: High-fat diet mouse experiment with D-psicose drinking water: body weight gain and fasting blood glucose; format: in vivo
Description: Eight-week-old (week 0) male C57BL/6J mice (total 4 groups, n=7) were fed a high-fat diet and tap water (control) or D-psicose-containing water, or antibiotics in addition to these (Control+Abx, D-psicose+Abx). During the experimental period, the body weight of the mice, the water intake, and the food intake were measured weekly, and the feces were collected. The samples at weeks 0 and 5 were used for analysis. The fasting blood glucose level was measured at week 9. The mice were dissected after 11 weeks.
The average (g) of the body weight gain at week 5 (13 weeks old) from start of rearing (8 weeks old) is shown (n =7). The error bars represent standard deviations (SDs). Control (white): high-fat diet+tap water, D-psicose (black): high-fat diet +5.0% D-psicose, Abx−: without antibiotic treatment, Abx+: with antibiotic treatment. The antibiotics were 0.1% ampicillin sodium, 0.1% neomycin sulfate, and 0.05% vancomycin hydrochloride. The Student's t-test was used in significance testing. A p-value of 0.05 or less is considered significant and indicated by*in the figure.
The 15-hour fasting blood glucose level (mg/dl) at week 9 after start of rearing is shown (n=7). The error bars represent standard deviations (SDs). Control (white): high-fat diet+tap water, D-psicose (black): high-fat diet +5.0% D-psicose, Abx−: without antibiotic treatment, Abx+: with antibiotic treatment. The antibiotics were 0.1% ampicillin sodium, 0.1% neomycin sulfate, and 0.05% vancomycin hydrochloride. The Student's t-test was used in significance testing. A p-value of 0.05 or less is considered significant and indicated by*in the figure.
(§1) Twenty eight 6-week-old male C57BL/6J mice (CLEA Japan, Inc.) were provided and fed a normal diet CE-2 (CLEA Japan, Inc.) and tap water for 2 weeks, followed by acclimation. The mice were divided into 4 groups (7 mice per group): (i) tap water-administered group, (ii) D-psicose water-administered group, (iii) tap water and antibiotic-administered group, and (iv) D-psicose water and antibiotic-administered group. The experiment was started at 8 weeks old. For food, the mice in all groups were freely fed a high-fat diet HFD32 (CLEA Japan, Inc.). […] During the experimental period, the body weight of the mice, the water intake, and the food intake were measured weekly, and the feces were collected. […] At week 9 (17 weeks old) from the start of the experiment, the fasting blood glucose level, an indicator of diabetes, was measured. After 15-hour fasting, the side of the tail was pricked with a syringe needle (Terumo Corporation), and the blood glucose level was measured by using a glucometer (Nipro StatStrip XP3). […]

[2] = tested on: genus Atopobium (intestinal microbe, SEQ ID NO:1 OTU); experiment: 16S rRNA gene analysis of intestinal microbiota in fecal samples of D-psicose-administered mice; format: in vivo, mouse; conditions: 5.0% D-psicose water, high-fat diet, fecal samples at week 5, vs tap water control (FIG. 4)
Description: The relative abundance of the genus Atopobium in the fecal samples at week 5 from start of rearing is shown. The relative abundance is calculated as the percentage of the genus Atopobium in the total reads. Control (white): high-fat diet+tap water, D-psicose (black): high-fat diet +5.0% D-psicose. The Mann-Whitney U test was used in significance testing. A p-value of 0.001 or less is considered significant and indicated by P<0.001: in the figure.
as §1, with “old.” for “old. For food, the mice in all groups were freely fed a high-fat diet HFD32 (CLEA Japan, Inc.).”

O=C(CO)[C@H](O)[C@H](O)[C@H](O)CO [D-psicose]
body weight gain due to the intake of high-fat diet ([1]; 5.0% (w/v) D-psicose in drinking water, without antibiotic treatment, week 5, vs tap water control (FIG. 2)): significantly suppresses the body weight gain
suppression of body weight gain ([1]; 5.0% D-psicose water plus antibiotics (0.1% ampicillin sodium, 0.1% neomycin sulfate, 0.05% vancomycin hydrochloride), intestinal microbes removed (FIG. 2)): not observed
fasting blood glucose level, difference between groups ([1]; 5.0% D-psicose water plus antibiotics vs tap water plus antibiotics, 15-hour fasting, week 9 (FIG. 3)): no significant difference
fasting blood glucose level ([1]; 5.0% D-psicose water, without antibiotics, 15-hour fasting, week 9, vs tap water control (FIG. 3)): significantly reduces the blood glucose level
growth (relative abundance) of the intestinal microbe, genus Atopobium, in feces [2]: significantly grows
